According to US10428017B2, “Modulators of the cystic fibrosis transmembrane conductance regulator protein and methods of use” (AbbVie S.à.r.l., priority 2017, dated 2019):
Like-named read-outs stand apart in the source and are kept apart here.

Target: T1, F508delCFTR (Homo sapiens, UniProt P13569, DEL508-508)
T1 construct: expressed in transfected cells; host or cells: CFBE4lo-F508delCFTR-HRP cells (human lung derived epithelial cell line, doxycycline-inducible)
Assay: Cell Surface Expression-Horse Radish Peroxidase (CSE-HRP) Assay
Type: cell-based
Conditions: for EC50: CFBE4lo-F508delCFTR-HRP cells, 18-24 hours at 33° C.; for Emax / Maximum % activity (with co-corrector): maximum at any tested concentration (up to 20 μM), normalized to on-plate positive control (2 μM co-corrector); for Maximum % activity (with co-corrector): with co-corrector 2 μM
Description: Cell Surface Expression-Horse Radish Peroxidase (CSE-HRP) Assay
A cellular assay for measuring the F508delCFTR cell surface expression after correction with test compounds either without or with a co-corrector (2 μM of 3-[(2R,4R)-4-({[1-(2,2-difluoro-1,3-benzodioxol-5-yl)cyclopropyl]carbonyl}amino)-7-methoxy-3,4-dihydro-2H-chromen-2-yl]benzoic acid), was developed in human lung derived epithelial cell line (CFBE4lo−) (Veit G et al, (2012) Mol Biol Cell. 23(21): 4188-4202). The development was achieved by expressing the F508delCFTR mutation along with a horseradish peroxidase (HRP) in the fourth exofacial loop, and then measuring the HRP activity using luminescence readout from these cells, CFBE4lo-F508delCFTR-HRP, that were incubated overnight with the test corrector compounds, either without or with the co-corrector. For this primary assay, the CFBE4lo-F508delCFTR-HRP cells were plated in 384-well plates (Greiner Bio-one; Cat 781080) at 4,000 cells/well along with 0.5 μg/mL doxycycline to induce the F508delCFTR-HRP expression and further incubated at 37° C., 5% CO2 for 72 hours. The test compounds were then added either without or with a co-corrector at the required concentrations and further incubated for 18-24 hours at 33° C. The highest concentration tested was 20 μM with an 8-point concentration response curve using a 3-fold dilution in both the test compound without or with the co-corrector. Three replicate plates were run to determine one EC50. All plates contained negative controls (dimethyl sulfoxide, DMSO) and positive control (2 μM of 3-[(2R,4R)-4-({[1-(2,2-difluoro-1,3-benzodioxol-5-yl)cyclopropyl]carbonyl}amino)-7-methoxy-3,4-dihydro-2H-chromen-2-yl]benzoic acid) as well as on-plate concentration response of the positive control. Post incubation, the plates were washed 5× times with Dulbecco's phosphate buffered saline (DPBS), followed by the addition of the HRP substrate, luminol (50 μL), and measuring the HRP activity using luminescence readout on EnVision® Multilabel Plate Reader (Perkin Elmer; product number 2104-0010). The raw counts from the experiment were analyzed using Accelrys® Assay Explorer v3.3.
Z′ greater than 0.5 was used as passing quality control criteria for the plates.
The Z′ is defined as: 1−[3*SDPositive Control+3*SDNegative Control/Absolute(Meanpostivie Control−MeanNegative Control)] wherein “SD” is standard deviation.
The % activity measured at each of the 8 test concentrations of the test compound added either without or with a co-corrector (2 μM of 3-[(2R,4R)-4-({[1-(2,2-difluoro-1,3-benzodioxol-5-yl)cyclopropyl]carbonyl}amino)-7-methoxy-3,4-dihydro-2H-chromen-2-yl]benzoic acid) was normalized to the on-plate positive control using the following formulae: % activity(Test compound without co-corrector)=[(test compound without co-corrector response−DMSO response)/(positive control response−DMSO response)]*100 % activity(Test compound with co-corrector)=[(test compound with co-corrector response−DMSO response)/(positive control response−DMSO response)]*100
The maximum % activity achieved for the test compound either without or with a co-corrector at any tested concentration is presented in Table 1 along with the respective EC50's calculated using the following general sigmoidal curve with variable Hill slope equation (described as Model 42 in the Accelrys® Assay Explorer v3.3 software): y=(a−d)/(1+(x/c)^b)+d
General sigmoidal curve with concentration, response, top, bottom, EC50 and Hill slope. This model describes a sigmoidal curve with an adjustable baseline, a. The equation can be used to fit curves where response is either increasing or decreasing with respect to the independent variable, “x”.
“x” is a concentration of drug under test.
“a” is the maximum response, and “d” is the minimum response
“c” is the inflection point (EC50) for the curve. That is, “y” is halfway between the lower and upper asymptotes when x=c.
“b” is the slope-factor or Hill coefficient. […]

[1] = test compound without co-corrector, HRP luminescence readout, read-out: EC50 (without co-corrector)
[2] = test compound without co-corrector
[3] = with co-corrector 2 μM 3-[(2R,4R)-4-({[1-(2,2-difluoro-1,3-benzodioxol-5-yl)cyclopropyl]carbonyl}amino)-7-methoxy-3,4-dihydro-2H-chromen-2-yl]benzoic acid, read-out: EC50 (with co-corrector)

T1 sequence (P13569 with tags, fused parts or gaps DEL508-508): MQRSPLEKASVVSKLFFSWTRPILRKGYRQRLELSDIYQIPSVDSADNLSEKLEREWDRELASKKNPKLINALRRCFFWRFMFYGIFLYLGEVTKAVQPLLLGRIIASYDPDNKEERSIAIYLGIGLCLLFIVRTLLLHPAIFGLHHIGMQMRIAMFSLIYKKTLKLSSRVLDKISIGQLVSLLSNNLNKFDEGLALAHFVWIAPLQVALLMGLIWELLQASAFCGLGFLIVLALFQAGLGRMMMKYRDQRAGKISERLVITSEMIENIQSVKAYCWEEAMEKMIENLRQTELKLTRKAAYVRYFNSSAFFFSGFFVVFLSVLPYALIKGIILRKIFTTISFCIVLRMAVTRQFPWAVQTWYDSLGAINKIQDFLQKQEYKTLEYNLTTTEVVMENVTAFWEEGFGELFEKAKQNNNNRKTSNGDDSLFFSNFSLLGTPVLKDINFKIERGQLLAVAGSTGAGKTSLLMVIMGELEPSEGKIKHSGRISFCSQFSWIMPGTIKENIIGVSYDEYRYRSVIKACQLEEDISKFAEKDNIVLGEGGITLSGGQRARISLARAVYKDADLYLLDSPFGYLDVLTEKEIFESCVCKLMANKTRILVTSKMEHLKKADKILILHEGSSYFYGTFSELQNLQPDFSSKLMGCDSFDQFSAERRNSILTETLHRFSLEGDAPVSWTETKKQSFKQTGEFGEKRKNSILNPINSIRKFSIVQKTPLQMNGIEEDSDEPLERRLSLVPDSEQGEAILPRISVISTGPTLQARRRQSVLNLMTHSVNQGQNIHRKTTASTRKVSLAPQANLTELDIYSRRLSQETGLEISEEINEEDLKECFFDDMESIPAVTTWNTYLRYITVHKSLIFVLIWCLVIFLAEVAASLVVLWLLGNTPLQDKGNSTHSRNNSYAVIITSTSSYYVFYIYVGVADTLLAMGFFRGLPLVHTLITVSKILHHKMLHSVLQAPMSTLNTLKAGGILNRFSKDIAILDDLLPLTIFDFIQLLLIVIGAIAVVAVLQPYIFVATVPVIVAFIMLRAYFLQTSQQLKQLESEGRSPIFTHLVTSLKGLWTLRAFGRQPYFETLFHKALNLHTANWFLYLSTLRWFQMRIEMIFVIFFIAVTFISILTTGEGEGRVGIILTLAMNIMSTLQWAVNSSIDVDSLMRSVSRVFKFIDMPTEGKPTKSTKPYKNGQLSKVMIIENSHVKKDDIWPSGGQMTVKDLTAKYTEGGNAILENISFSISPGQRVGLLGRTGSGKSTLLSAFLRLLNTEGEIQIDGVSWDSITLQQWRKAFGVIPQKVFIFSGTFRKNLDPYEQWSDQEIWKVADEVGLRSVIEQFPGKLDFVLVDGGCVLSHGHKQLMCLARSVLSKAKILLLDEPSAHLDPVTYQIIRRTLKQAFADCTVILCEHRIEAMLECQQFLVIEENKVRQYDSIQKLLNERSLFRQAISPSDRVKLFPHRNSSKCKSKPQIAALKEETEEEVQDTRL

SMILES | EC50 [1] [µM] | Emax [2] [%] | EC50 [3] [µM] | Maximum % activity (with co-corrector)
Cc1ccccc1S(=O)(=O)NC(=O)C1CCOc2ccccc21 (stereo not shown) [Example 30, N-(2-methylbenzene-1-sulfonyl)-3,4-dihydro-2H-1-benzopyran-4-carboxamide] | ≥ 10 | < 50 | 3 to 10 | + (<150)
O=C(NS(=O)(=O)c1cccc2ccccc12)C1(c2ccccc2)C[C@@H](CN2CCCC2)Oc2ccccc21 (stereo partly drawn) [Example 31, (2S)—N-(naphthalene-1-sulfonyl)-4-phenyl-2-[(pyrrolidin-1-yl)methyl]-3,4-dihydro-2H-1-benzopyran-4-carboxamide] | ≥ 10 | < 50 | 3 to 10 | ++ (≥150 and <350)
C[C@@]1(C(=O)NS(=O)(=O)c2cccc3ccccc23)COc2cc3c(cc21)OC(F)(F)O3 [Example 32, (7S)-2,2-difluoro-7-methyl-N-(naphthalene-1-sulfonyl)-6,7-dihydro-2H-furo[2,3-f][1,3]benzodioxole-7-carboxamide] | 3 to 10 | < 50 | 3 to 10 | ++ (≥150 and <350)
C[C@]1(C(=O)NS(=O)(=O)c2cccc3ccccc23)COc2cc3c(cc21)OC(F)(F)O3 [Example 33, (7R)-2,2-difluoro-7-methyl-N-(naphthalene-1-sulfonyl)-6,7-dihydro-2H-furo[2,3-f][1,3]benzodioxole-7-carboxamide] | ≥ 10 | < 50 | ≥ 10 | ++ (≥150 and <350)
COc1cccc2c1C(C(=O)NS(=O)(=O)c1cccc3ccccc13)CC1(CCCCC1)O2 (stereo not shown) [Example 38, 5-methoxy-N-(naphthalene-1-sulfonyl)-3,4-dihydrospiro[1-benzopyran-2,1′-cyclohexane]-4-carboxamide] | < 3 | ≥ 150 | < 3 | +++ (≥350)
CCC1(C(=O)NS(=O)(=O)c2cccc3ccccc23)COc2c(Cl)cccc21 (stereo not shown) [Example 44, 7-chloro-3-ethyl-N-(naphthalene-1-sulfonyl)-2,3-dihydro-1-benzofuran-3-carboxamide] | 3 to 10 | 50 to 150 | 3 to 10 | +++ (≥350)
COc1ccc(Br)c2c1C(C(=O)NS(=O)(=O)c1cccc3ncccc13)CC(C)(C)O2 (stereo not shown) [Example 46, 8-bromo-5-methoxy-2,2-dimethyl-N-(quinoline-5-sulfonyl)-3,4-dihydro-2H-1-benzopyran-4-carboxamide] | < 3 | ≥ 150 | < 3 | +++ (≥350)
COc1cccc2c1C(C(=O)NS(=O)(=O)c1cccc3cccnc13)CC(C)(C)O2 (stereo not shown) [Example 47, 5-methoxy-2,2-dimethyl-N-(quinoline-8-sulfonyl)-3,4-dihydro-2H-1-benzopyran-4-carboxamide] | 3 to 10 | < 50 | 3 to 10 | ++ (≥150 and <350)
COc1cccc2c1C(C(=O)NS(=O)(=O)c1cccc3ncccc13)CC(C)(C)O2 (stereo not shown) [Example 48, 5-methoxy-2,2-dimethyl-N-(quinoline-5-sulfonyl)-3,4-dihydro-2H-1-benzopyran-4-carboxamide] | 3 to 10 | ≥ 150 | 3 to 10 | +++ (≥350)

Other lines, results leading:

EC50 [1] [µM] | Emax [2] [%] | EC50 [3] [µM] | Maximum % activity (with co-corrector) | SMILES
≥ 10 | < 50 | ≥ 10 | + (<150) | O=C(NS(=O)(=O)c1cccc2ccccc12)C1COc2ccccc21 (stereo not shown) [Example 34, N-(naphthalene-1-sulfonyl)-2,3-dihydro-1-benzofuran-3-carboxamide]
3 to 10 | 50 to 150 | 3 to 10 | +++ (≥350) | COc1ccc(Br)c2c1[C@@H](C(=O)NS(=O)(=O)c1cccc3ccccc13)CCO2 [Example 35, (4S)-8-bromo-5-methoxy-N-(naphthalene-1-sulfonyl)-3,4-dihydro-2H-1-benzopyran-4-carboxamide]
< 3 | ≥ 150 | < 3 | +++ (≥350) | COc1ccc(Br)c2c1[C@H](C(=O)NS(=O)(=O)c1cccc3ccccc13)CCO2 [Example 36, (4R)-8-bromo-5-methoxy-N-(naphthalene-1-sulfonyl)-3,4-dihydro-2H-1-benzopyran-4-carboxamide]
3 to 10 | ≥ 150 | < 3 | +++ (≥350) | COc1ccc(Br)c2c1OCC2C(=O)NS(=O)(=O)c1cccc2ccccc12 (stereo not shown) [Example 37, 4-bromo-7-methoxy-N-(naphthalene-1-sulfonyl)-2,3-dihydro-1-benzofuran-3-carboxamide]
< 3 | ≥ 150 | < 3 | +++ (≥350) | COc1ccc(Br)c2c1C(C(=O)NS(=O)(=O)c1cccc3ccccc13)CO2 (stereo not shown) [Example 39, 7-bromo-4-methoxy-N-(naphthalene-1-sulfonyl)-2,3-dihydro-1-benzofuran-3-carboxamide]
< 3 | ≥ 150 | < 3 | +++ (≥350) | COc1ccc(Br)c2c1C(C(=O)NS(=O)(=O)c1cccc3ccccc13)CC1(CCCCC1)O2 (stereo not shown) [Example 41, 8-bromo-5-methoxy-N-(naphthalene-1-sulfonyl)-3,4-dihydrospiro[1-benzopyran-2,1′-cyclohexane]-4-carboxamide]
3 to 10 | 50 to 150 | < 3 | +++ (≥350) | COc1ccc(Br)c2c1C(C(=O)NS(=O)(=O)c1cccc3cccnc13)CCO2 (stereo not shown) [Example 42, 8-bromo-5-methoxy-N-(quinoline-8-sulfonyl)-3,4-dihydro-2H-1-benzopyran-4-carboxamide]
3 to 10 | < 50 | 3 to 10 | ++ (≥150 and <350) | O=C(NS(=O)(=O)c1cccc2ccccc12)C1COc2c(Cl)cccc21 (stereo not shown) [Example 43, 7-chloro-N-(naphthalene-1-sulfonyl)-2,3-dihydro-1-benzofuran-3-carboxamide]
3 to 10 | 50 to 150 | 3 to 10 | ++ (≥150 and <350) | O=C(NS(=O)(=O)c1cccc2ccccc12)C1COc2c1cccc2C(F)(F)F (stereo not shown) [Example 45, N-(naphthalene-1-sulfonyl)-7-(trifluoromethyl)-2,3-dihydro-1-benzofuran-3-carboxamide]
3 to 10 | ≥ 150 | < 3 | +++ (≥350) | COc1cccc2c1C(C(=O)NS(=O)(=O)c1cccc3ccccc13)CC(C)(C)O2 (stereo not shown) [Example 49, 5-methoxy-2,2-dimethyl-N-(naphthalene-1-sulfonyl)-3,4-dihydro-2H-1-benzopyran-4-carboxamide]
